Molecular target: purified human Factor XIIIa (Homo sapiens, UniProt P00488)
Conditions: 10 mM EDTA added in the presence of Factor XIIIa 30 U/ml; fibrinogen 100 μg/ml, Lp(a) 500 μg/ml, 37° C., 30 minutes to 6 hours
Experimental: To determine if Factor XIIIa crosslinks Lp(a) with fibrinogen, Factor XIIIa was incubated with Lp(a) and fibrinogen in solution and then analyzed for Lp(a)-fibrinogen crosslinking over a time course ranging from 30 minutes to 6 hours. Briefly, purified human fibrinogen (Calbiochem, San Diego, Calif.), at a final concentration of 100 μg/ml, was incubated with purified human Lp(a) (Enzyme Research Laboratories, South Bend, Ind.) at a final concentration of 500 μg/ml, in the presence of purified human Factor XIIIa (Enzyme Research Laboratories, South Bend, Ind.) at 30 U/ml. As controls, Factor XIIIa was either omitted from the reaction or 10 mM EDTA was added in the presence of Factor XIIIa to inhibit Factor XIIIa activity. The reactions were conducted at 37° C. in a buffer of 40 mM Tris, 0.15 M NaCl, 5 mM dithiolthreitol, and 10 mM CaC12, at pH 8.3. Factor XIII was preactivated to Factor XIIIa immediately before each experiment by incubating Factor XIII with thrombin at 3 U/ml in 40 mM Tris and 0. 15 M NaCl, at pH 8.3 for 1 hour at room temperature. The activation procedure was stopped by adding hirudin at 100 U/ml (Sigma) to inhibit the thrombin. […]
To identify the presence of Lp(a) within the immunoprecipitated complexes, samples were analyzed by western blot using an antibody to Lp(a). […]

Sequence of purified human Factor XIIIa (P00488 39-732 limits assumed): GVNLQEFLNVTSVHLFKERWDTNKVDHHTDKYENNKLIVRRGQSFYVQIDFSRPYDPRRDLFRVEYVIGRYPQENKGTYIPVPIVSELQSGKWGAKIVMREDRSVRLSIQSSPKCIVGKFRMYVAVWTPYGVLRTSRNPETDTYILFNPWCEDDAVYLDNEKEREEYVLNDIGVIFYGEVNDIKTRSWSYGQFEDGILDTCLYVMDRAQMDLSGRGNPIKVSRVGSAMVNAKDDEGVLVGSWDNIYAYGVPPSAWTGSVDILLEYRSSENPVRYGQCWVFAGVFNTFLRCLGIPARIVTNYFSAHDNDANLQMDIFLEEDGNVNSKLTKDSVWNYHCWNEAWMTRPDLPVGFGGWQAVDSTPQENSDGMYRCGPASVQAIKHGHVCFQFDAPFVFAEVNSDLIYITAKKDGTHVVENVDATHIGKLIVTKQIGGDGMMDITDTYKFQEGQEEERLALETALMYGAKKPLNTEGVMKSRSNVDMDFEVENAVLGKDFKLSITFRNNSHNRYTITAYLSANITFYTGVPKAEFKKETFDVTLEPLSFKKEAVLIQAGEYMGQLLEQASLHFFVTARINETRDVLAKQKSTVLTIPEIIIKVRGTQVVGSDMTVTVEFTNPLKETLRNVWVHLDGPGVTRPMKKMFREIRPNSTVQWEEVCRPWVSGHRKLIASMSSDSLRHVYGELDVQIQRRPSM

O=C(O)CN(CCN(CC(=O)O)CC(=O)O)CC(=O)O [EDTA]
Lp(a) crosslinked with fibrinogen (Lp(a) in anti-fibrinogen immunoprecipitated material, western blot): Lp(a) was not incorporated in the immunoprecipitated material

Reference: US20040105861A1, “Use of factor XIIIa inhibitors to treat atherosclerosis” (SmithKline Beecham Corporation, priority 1997, published 2004)
